In ChEMBL document CHEMBL1201862, “PubChem BioAssay data set” (2004):
Blank lines part the entries; values can stand above or below the compound they belong to. Calls of active or inactive are those of the source.

Key:
[1] = biological target: T1, Tyrosine-protein phosphatase non-receptor type 7 (Homo sapiens, UniProt P35236); type: functional
T1 sequence (P35236 whole entry): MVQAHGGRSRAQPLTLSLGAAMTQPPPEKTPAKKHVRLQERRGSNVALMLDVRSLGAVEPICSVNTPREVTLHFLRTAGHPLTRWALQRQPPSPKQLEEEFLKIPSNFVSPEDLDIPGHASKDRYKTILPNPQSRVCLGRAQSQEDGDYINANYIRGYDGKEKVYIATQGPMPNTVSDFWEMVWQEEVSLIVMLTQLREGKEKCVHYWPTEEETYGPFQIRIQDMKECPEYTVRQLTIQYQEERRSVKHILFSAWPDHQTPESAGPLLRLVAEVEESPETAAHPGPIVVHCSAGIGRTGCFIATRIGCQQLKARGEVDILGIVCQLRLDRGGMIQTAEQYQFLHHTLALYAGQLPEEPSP

[2] = biological target: T2, Dual specificity protein phosphatase 6 (Rattus norvegicus, UniProt Q64346);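 also: in vitro confirmatory secondary MKP-3 assay designed to detect irreversible or slow-binding inhibitors; recombinant His-tagged rat MKP-3 acting on the substrate OMFP; inhibitor potency from reduced phosphatase rate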
T2 sequence (Q64346 whole entry): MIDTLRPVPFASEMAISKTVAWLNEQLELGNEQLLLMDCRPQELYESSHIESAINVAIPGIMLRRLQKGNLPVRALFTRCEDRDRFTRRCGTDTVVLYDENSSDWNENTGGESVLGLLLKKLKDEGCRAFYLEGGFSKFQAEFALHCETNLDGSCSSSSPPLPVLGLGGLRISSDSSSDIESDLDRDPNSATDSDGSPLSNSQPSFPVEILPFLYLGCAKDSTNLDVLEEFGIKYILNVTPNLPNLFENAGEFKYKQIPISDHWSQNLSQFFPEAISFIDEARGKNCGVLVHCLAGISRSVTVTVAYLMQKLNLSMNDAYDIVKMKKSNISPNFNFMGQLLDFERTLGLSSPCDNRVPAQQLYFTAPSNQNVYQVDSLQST

[3] = biological target: Glucose-6-phosphate 1-dehydrogenase (Homo sapiens, UniProt P11413); test: inhibition of Homo sapiens G6PD, dose series – biochemical, fluorescence, selectivity assay for P. falciparum G6PD inhibitor project, dose response (AID 504792); type: functional
Sequence of Glucose-6-phosphate 1-dehydrogenase (P11413 whole entry): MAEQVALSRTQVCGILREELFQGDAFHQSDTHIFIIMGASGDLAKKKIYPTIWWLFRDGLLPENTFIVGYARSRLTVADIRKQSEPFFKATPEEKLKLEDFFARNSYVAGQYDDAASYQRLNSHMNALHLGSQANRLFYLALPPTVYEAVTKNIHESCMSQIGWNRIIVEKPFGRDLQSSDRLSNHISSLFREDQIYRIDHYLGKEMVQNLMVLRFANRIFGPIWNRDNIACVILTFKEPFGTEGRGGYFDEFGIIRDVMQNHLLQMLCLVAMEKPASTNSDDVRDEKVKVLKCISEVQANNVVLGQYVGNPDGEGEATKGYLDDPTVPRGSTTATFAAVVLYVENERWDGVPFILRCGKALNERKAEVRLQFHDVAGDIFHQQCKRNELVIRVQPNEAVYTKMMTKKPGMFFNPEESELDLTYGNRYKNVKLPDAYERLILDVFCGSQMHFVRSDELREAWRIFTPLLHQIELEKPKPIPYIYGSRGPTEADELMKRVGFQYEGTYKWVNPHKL

[4] = Trypanosoma cruzi growth suppression in host cells – NIH3T3 host cells, beta-gal luminescence, confirmation (AID 2044); type: functional, cell-based;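 also: intracellular parasites grown in NIH/3T3 mouse fibroblasts as host cells; luminescent beta-galactosidase reporter signal from transgenic T. cruzi replicating inside host cells; inhibitors lower the luminescence signal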
[5] = biological target: Intestinal-type alkaline phosphatase (Homo sapiens, UniProt P09923); test: Dose Response confirmation of uHTS hits from a small molecule inhibitors of human intestinal alkaline phosphatase via a luminescent assay. [Related pubchem assays (depositor defined):AID2544, AID2574]; type: functional
[6] = biological target: Heat shock protein HSP 90-alpha (Homo sapiens, UniProt P07900); type: functional, organism-based
[7] = biological target: 5'-AMP-activated protein kinase catalytic subunit alpha-1 (Homo sapiens, UniProt Q13131); type: functional
[8] = biological target: ALK tyrosine kinase receptor (Homo sapiens, UniProt Q9UM73); type: functional;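 also: ALK tested as one member of a kinase panel screen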
[9] = biological target: Calcium/calmodulin-dependent protein kinase type II subunit gamma (Homo sapiens, UniProt Q13555); type: functional
Sequence of Calcium/calmodulin-dependent protein kinase type II subunit gamma (Q13555 whole entry): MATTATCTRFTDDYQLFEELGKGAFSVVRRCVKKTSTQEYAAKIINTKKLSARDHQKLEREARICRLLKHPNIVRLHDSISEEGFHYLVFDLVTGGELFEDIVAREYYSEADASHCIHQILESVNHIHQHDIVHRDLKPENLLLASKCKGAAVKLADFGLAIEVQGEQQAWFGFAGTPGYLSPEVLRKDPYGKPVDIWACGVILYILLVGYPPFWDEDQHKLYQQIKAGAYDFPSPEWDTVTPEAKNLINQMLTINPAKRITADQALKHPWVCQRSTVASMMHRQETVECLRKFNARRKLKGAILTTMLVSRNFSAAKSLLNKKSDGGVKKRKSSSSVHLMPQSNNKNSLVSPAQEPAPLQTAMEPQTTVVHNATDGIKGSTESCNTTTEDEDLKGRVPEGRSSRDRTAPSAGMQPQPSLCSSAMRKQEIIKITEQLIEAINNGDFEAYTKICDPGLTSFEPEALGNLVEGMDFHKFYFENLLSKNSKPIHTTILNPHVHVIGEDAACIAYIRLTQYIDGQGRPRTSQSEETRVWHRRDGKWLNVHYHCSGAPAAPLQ

[10] = biological target: Serine/threonine-protein kinase D3 (Homo sapiens, UniProt O94806); type: functional;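 also: determined within a kinase panel screen, with PRKCN as the panel member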
Sequence of Serine/threonine-protein kinase D3 (O94806 whole entry): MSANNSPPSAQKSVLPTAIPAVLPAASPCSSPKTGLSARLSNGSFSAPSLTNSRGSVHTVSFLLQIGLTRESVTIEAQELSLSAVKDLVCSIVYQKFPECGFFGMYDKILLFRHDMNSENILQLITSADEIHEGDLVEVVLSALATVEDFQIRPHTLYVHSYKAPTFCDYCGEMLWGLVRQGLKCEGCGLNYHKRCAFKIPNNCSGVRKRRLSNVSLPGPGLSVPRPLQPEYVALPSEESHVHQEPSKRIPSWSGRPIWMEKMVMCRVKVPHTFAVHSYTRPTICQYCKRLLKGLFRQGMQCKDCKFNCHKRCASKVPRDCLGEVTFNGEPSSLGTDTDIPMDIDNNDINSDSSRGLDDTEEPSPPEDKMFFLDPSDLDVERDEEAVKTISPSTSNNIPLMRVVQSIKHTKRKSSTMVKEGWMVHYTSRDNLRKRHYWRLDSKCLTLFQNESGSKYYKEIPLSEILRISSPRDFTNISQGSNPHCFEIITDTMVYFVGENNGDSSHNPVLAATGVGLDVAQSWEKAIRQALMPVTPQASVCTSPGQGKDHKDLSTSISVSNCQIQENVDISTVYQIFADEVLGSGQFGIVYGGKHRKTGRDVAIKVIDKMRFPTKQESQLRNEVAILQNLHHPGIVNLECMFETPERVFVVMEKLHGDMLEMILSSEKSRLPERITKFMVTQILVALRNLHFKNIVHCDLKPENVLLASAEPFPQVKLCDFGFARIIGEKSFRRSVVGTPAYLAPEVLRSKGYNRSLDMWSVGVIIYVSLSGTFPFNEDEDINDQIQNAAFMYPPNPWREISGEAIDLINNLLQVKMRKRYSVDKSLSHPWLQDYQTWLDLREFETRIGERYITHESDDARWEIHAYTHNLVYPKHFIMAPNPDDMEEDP

[11] = biological target: Tyrosine-protein kinase Lck (Homo sapiens, UniProt P06239); type: functional;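 also: lck was assayed as one member of a kinase panel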
[12] = biological target: Cyclin-dependent kinase 2 (Homo sapiens, UniProt P24941); type: functional;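 also: CDK2 measured as one member of a broad kinome profiling panel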
[13] = biological target: Cell division cycle 7-related protein kinase (Homo sapiens, UniProt O00311); type: functional;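 also: value obtained from a kinome-wide kinase panel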
Sequence of Cell division cycle 7-related protein kinase (O00311 whole entry): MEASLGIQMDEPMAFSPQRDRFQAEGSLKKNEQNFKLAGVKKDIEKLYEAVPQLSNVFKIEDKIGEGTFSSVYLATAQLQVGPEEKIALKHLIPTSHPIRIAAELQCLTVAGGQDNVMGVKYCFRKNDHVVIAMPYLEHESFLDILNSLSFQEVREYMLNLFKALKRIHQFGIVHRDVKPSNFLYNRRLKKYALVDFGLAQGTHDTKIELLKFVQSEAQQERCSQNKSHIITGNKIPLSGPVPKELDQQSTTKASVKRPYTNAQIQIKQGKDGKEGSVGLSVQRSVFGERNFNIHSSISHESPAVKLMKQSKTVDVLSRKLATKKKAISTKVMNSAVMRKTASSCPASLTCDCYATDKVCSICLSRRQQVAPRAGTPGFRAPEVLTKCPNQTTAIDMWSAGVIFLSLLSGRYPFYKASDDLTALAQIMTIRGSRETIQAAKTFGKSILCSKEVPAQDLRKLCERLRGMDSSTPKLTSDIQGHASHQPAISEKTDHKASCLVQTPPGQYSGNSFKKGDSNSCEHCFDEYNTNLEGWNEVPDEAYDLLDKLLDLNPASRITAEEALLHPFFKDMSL

[14] = biological target: Tyrosine-protein kinase BTK (Homo sapiens, UniProt Q06187); type: functional
[15] = biological target: Serine/threonine-protein kinase PAK 4 (Homo sapiens, UniProt O96013); type: functional;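 also: value obtained within a kinome profiling panel in which PAK4 was one of the panel members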
[16] = biological target: Serine/threonine-protein kinase PAK 1 (Homo sapiens, UniProt Q13153); type: functional
[17] = biological target: Casein kinase I isoform gamma-1 (Homo sapiens, UniProt Q9HCP0); type: functional;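 also: measured as the CSNK1G1 member of a kinome profiling panel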
[18] = biological target: Ribosomal protein S6 kinase alpha-5 (Homo sapiens, UniProt O75582); type: functional
[19] = biological target: Tyrosine-protein kinase Lyn (Homo sapiens, UniProt P07948); type: functional;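 also: lyn as one member of a kinase panel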
[20] = biological target: Receptor tyrosine-protein kinase erbB-2 (Homo sapiens, UniProt P04626); test: Navigating the Kinome. Panel member name: ERBB2; type: functional
[21] = biological target: Insulin-like growth factor 1 receptor (Homo sapiens, UniProt P08069); test: Navigating the Kinome. Panel member name: IGF1R; type: functional
[22] = biological target: Mitogen-activated protein kinase 1 (Homo sapiens, UniProt P28482); type: functional
[23] = biological target: Interleukin-1 receptor-associated kinase 1 (Homo sapiens, UniProt P51617); type: functional;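 also: IRAK1 tested as one member of a kinome panel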
Aurora kinase B = Aurora kinase B (Homo sapiens, UniProt Q96GD4); type: functional
Sequence of Aurora kinase B (Q96GD4 whole entry): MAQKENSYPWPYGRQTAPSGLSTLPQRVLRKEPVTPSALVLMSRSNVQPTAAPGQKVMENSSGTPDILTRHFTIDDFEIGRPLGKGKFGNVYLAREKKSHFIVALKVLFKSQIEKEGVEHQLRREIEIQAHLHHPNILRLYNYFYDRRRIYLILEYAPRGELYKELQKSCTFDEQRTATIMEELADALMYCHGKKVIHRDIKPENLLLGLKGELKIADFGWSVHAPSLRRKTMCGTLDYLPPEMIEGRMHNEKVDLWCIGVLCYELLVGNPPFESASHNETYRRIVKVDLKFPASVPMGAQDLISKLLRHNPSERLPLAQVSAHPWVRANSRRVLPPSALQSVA

[24] = biological target: Interleukin-1 receptor-associated kinase 4 (Homo sapiens, UniProt Q9NWZ3); type: functional
[25] = biological target: Mitogen-activated protein kinase kinase kinase kinase 5 (Homo sapiens, UniProt Q9Y4K4); type: functional;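 also: measured as one member of a kinome-spanning kinase panel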
[26] = biological target: Serine/threonine-protein kinase DCLK1 (Homo sapiens, UniProt O15075); type: functional;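 also: affinity for DCLK1 (listed as DCAMKL1) measured as one member of a kinome-wide kinase profiling panel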
Sequence of Serine/threonine-protein kinase DCLK1 (O15075 whole entry): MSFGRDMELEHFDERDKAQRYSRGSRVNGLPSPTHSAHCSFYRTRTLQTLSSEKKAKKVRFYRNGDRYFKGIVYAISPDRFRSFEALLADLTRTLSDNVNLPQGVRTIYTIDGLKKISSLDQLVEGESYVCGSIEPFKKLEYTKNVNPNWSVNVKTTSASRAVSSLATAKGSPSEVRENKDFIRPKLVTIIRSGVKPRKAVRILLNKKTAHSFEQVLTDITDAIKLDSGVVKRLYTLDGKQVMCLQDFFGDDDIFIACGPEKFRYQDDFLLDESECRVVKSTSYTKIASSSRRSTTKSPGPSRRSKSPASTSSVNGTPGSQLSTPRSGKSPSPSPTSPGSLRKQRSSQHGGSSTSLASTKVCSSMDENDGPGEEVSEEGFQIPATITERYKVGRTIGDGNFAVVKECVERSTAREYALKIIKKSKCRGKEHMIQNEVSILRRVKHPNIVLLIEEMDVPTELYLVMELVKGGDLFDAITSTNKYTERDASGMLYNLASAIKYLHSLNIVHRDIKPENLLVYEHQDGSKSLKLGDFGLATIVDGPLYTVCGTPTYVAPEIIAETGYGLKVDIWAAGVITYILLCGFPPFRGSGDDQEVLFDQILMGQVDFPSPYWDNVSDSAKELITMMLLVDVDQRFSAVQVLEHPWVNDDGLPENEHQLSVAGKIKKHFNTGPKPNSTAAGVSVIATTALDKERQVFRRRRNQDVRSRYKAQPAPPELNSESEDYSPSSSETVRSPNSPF

[27] = biological target: Serine/threonine-protein kinase Nek2 (Homo sapiens, UniProt P51955); type: functional
[28] = biological target: Serine/threonine-protein kinase PLK1 (Homo sapiens, UniProt P53350); type: functional;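 also: PLK1 measured as one member of a kinome-wide profiling panel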
[29] = biological target: Mitogen-activated protein kinase 12 (Homo sapiens, UniProt P53778); type: functional;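 also: measured as one member of a kinome-wide kinase profiling panel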
Sequence of Mitogen-activated protein kinase 12 (P53778 whole entry): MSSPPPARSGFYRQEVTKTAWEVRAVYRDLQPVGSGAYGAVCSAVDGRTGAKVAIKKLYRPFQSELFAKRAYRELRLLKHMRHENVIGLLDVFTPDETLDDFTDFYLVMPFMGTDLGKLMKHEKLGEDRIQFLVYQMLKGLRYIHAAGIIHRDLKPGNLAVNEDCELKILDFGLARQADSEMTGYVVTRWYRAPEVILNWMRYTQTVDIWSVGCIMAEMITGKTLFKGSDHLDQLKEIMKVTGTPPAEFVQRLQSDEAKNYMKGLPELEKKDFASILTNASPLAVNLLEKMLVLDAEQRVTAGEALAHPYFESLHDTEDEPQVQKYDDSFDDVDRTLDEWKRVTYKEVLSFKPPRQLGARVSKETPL

[30] = biological target: Tyrosine-protein kinase receptor UFO (Homo sapiens, UniProt P30530); type: functional
Sequence of Tyrosine-protein kinase receptor UFO (P30530 whole entry): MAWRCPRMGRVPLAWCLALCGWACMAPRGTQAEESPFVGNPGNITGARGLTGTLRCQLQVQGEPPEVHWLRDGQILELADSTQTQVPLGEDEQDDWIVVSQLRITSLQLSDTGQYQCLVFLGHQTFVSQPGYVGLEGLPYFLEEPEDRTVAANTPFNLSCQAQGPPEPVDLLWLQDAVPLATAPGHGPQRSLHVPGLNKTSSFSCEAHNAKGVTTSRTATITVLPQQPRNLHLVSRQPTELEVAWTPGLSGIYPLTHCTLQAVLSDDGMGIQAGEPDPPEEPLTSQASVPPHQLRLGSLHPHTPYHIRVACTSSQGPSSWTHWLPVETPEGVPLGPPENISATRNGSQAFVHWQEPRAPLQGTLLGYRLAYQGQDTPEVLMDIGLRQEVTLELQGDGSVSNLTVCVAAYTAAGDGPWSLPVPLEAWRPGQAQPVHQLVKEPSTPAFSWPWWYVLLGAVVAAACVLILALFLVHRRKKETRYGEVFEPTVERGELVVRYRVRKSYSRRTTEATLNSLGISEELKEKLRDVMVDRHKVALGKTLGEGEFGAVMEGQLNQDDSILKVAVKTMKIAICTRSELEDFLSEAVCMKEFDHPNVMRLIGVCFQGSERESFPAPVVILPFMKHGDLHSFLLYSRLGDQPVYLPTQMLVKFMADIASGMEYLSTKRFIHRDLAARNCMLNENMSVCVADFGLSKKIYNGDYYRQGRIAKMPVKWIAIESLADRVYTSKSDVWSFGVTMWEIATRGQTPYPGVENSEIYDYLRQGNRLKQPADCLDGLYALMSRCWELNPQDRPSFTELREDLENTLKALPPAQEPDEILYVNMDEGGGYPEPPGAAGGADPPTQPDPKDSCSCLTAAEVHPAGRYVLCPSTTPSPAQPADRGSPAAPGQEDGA

SMILES: O=C(O)C1Nc2c(O)cc(Cl)c([N+](=O)[O-])c2C2C=CCC12 (stereo not given)
- IC50 [1]: 3840 nM (active)
- IC50 [2]: 36800 nM (active)

SMILES: Clc1ccc2nc(-c3ccc(Br)s3)cn2c1
- IC50 [3]: > 80000 nM (inactive)

SMILES: O=C(CCc1ccccc1)NNc1cc(N2CCCCC2)nc(N2CCCCC2)n1
- EC50 [4]: 3740 nM (active)

SMILES: Oc1ccc(N=Nc2c(O)ccc3ccccc23)cc1
- IC50 [5]: 17700 nM (inactive)
- AC50 [6]: 5610 nM (active)

- Ki [7]: 10 nM (active)
- Ki [8]: > 1260 nM (inactive)
- Ki [9]: 3.98 nM (active)
- pKi [9]: 8.4
- Ki [10]: 3.98 nM (active)
- Ki [11]: > 2510 nM (inactive)
- Ki [12]: 25.1 nM (active)
- pKi [12]: 7.6
- Ki [13]: 0.794 nM (active)
- pKi [13]: 9.1
- Ki [14]: > 1260 nM (inactive)
- Ki [15]: 31.6 nM (active)
- Ki [16]: 631 nM (active)
- Ki [17]: 79.4 nM (active)
- Ki [18]: 5.01 nM (active)
- Ki [19]: > 1580 nM (inactive)
- Ki [20]: > 1580 nM (inactive)
- Ki [21]: > 2000 nM (inactive)
- Ki [22]: 79.4 nM (active)
- Ki [23]: 1260 nM (active)
- Ki (Aurora kinase B): 200 nM (active)
- Ki [24]: 158 nM (active)
- Ki [25]: 251 nM (active)
- Ki [26]: 3160 nM (active)
- Ki [27]: > 10000 nM (inactive)
- Ki [28]: > 7940 nM (inactive)
- Ki [29]: 398 nM (active)
- Ki [30]: 158 nM (active)
- pKi [30]: 6.8
SMILES: Cc1n[nH]c2ccc(-c3cncc(OCC(N)Cc4cccc(Cl)c4)c3)cc12 (stereo not given)
